These compounds were tested against human NaV 1.8 (Homo sapiens, UniProt Q9Y5Y9) (assay: E-VIPR assay detecting and measuring NaV inhibition properties). Conditions: HEK cells expressing a truncated form of human NaV 1.8; electrical stimulation, membrane potential FRET dyes.
Sequence of human NaV 1.8 (Q9Y5Y9 126-1722 limits assumed): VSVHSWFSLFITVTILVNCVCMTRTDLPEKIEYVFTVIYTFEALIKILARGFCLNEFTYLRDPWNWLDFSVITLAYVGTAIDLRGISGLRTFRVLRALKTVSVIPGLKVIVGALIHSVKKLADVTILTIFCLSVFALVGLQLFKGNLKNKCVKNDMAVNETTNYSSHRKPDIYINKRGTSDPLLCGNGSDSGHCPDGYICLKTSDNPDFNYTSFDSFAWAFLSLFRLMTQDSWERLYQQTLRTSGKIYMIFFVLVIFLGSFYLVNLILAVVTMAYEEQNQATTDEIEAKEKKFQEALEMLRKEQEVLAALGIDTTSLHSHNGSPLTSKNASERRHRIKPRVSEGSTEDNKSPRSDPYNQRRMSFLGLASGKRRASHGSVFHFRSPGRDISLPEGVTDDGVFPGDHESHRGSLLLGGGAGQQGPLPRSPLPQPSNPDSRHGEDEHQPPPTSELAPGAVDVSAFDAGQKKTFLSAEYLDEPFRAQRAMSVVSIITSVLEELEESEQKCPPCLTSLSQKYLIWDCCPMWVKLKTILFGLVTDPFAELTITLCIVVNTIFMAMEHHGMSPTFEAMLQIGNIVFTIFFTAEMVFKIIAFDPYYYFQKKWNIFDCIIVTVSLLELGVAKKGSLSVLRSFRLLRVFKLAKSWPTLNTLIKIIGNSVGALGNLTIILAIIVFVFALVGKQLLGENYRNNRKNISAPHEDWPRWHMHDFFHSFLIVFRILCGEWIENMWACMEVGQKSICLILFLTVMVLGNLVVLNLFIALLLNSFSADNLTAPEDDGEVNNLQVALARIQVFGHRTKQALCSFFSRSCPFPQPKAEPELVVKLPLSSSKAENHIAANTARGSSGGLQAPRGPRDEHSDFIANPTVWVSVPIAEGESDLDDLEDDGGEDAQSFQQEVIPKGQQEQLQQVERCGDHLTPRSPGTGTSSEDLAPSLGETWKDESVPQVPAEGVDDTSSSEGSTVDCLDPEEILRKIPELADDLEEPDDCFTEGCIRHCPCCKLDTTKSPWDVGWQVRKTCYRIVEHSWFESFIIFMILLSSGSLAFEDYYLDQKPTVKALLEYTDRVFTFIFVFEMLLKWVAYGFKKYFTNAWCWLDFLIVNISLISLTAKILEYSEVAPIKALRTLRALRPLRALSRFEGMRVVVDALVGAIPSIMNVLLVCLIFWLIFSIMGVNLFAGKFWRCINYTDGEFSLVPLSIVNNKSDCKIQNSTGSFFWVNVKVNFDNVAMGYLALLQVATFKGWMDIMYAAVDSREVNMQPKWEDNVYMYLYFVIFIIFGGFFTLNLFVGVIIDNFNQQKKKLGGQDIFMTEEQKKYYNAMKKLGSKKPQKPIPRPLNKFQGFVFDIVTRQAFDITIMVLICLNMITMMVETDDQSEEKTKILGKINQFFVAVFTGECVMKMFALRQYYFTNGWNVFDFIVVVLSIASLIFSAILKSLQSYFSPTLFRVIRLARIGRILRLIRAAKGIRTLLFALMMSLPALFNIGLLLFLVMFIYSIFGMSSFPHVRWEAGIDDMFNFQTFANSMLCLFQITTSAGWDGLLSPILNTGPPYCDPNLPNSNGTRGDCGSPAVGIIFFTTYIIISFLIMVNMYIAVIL
Type: cell-based
From the text: E-VIPR Assay Detecting and Measuring NaV Inhibition Properties
Sodium ion channels are voltage-dependent proteins that can be activated by inducing membrane voltage changes by applying electric fields. The electrical stimulation instrument and methods of use, referred to as E-VIPR, are described in International Publication No. WO 2002/008748 A3 and C.-J. Huang et al. Characterization of voltage-gated sodium channel blockers by electrical stimulation and fluorescence detection of membrane potential, 24 Nature Biotech. 439-46 (2006), both of which are incorporated by reference in their entirety. The instrument comprises a microtiter plate handler, an optical system for exciting the coumarin dye while simultaneously recording the coumarin and oxonol emissions, a waveform generator, a current- or voltage-controlled amplifier, and parallel electrode pairs that are inserted into assay plate wells. Under integrated computer control, this instrument passes user-programmed electrical stimulus protocols to cells within the wells of the microtiter plate.
16-20 hours prior to running the assay on E-VIPR, HEK cells expressing a truncated form of human NaV 1.8 with full channel activity were seeded into microtiter 384-well plates, pre-coated with matrigel, at a density of 25,000 cells per well. 2.5-5% KIR2.1 Bacmam virus was added to the final cell suspension before seeding into cell plates. HEK cells were grown in Dulbecco's Modified Eagle's Medium (DMEM) supplemented with 10% FBS (Fetal Bovine Serum, qualified; Sigma #F4135), 1% NEAA (Non-Essential Amino Acids, Gibco #11140), 1% HEPES (Gibco #15630), 1% Pen-Strep (Penicillin-Streptomycin; Gibco #15140) and 5 μg/ml Blasticidin (Gibco #R210-01). Cells were expanded in vented cap cell culture flasks, with 90-95% humidity and 5% CO2.
Reagents and Stock Solutions:
100 mg/mL Pluronic F-127 (Sigma #P2443), in dry DMSO
Compound Plates: Corning 384-well Polypropylene Round Bottom #3656
Cell Plates: 384-well tissue culture treated plates (Greiner #781091-2B)
2.5-5% KIR 2.1 Bacmam virus (produced in-house), prepared as described in Section 3.3 of J. A. Fornwald et al., Gene Expression in Mammalian Cells Using BacMam, a Modified Baculovirus System, 1350 Methods in Molecular Biology 95-116 (2016), the entire contents of which are incorporated by reference. The concentration used can be dependent on viral titer of each batch.
5 mM DiSBAC6(3), a voltage sensitive oxonol acceptor (CAS number 169211-44-3; 5-[3-(1,3-dihexylhexahydro-4,6-dioxo-2-thioxo-5-pyrimidinyl)-2-propen-1-ylidene]-1,3-dihexyldihydro-2-thioxo-4,6(1H,5H)-pyrimidinedione), in dry DMSO. The preparation of DiSBAC6(3) is analogous to that of DiSBAC4(3) as described in Voltage Sensing by Fluorescence Resonance Energy Transfer in Single Cells, Gonzalez, J. E. and Tsien, R. Y. (1995) Biophys. J. 69, 1272-1280.
5 mM CC2-DMPE, a commercially available membrane-bound coumarin phospholipid FRET donor (ThermoFisher Scientific catalog number K1017, CAS number 393782-57-5; tetradecanoic acid, 1,1′-[(1R)-1-[8-(6-chloro-7-hydroxy-2-oxo-2H-1-benzopyran-3-yl)-3-hydroxy-3-oxido-8-oxo-2,4-dioxa-7-aza-3-phosphaoct-1-yl]-1,2-ethanediyl]ester) was prepared in dry DMSO. See also, Improved indicators of cell membrane potential that use fluorescence resonance energy transfer, Gonzalez, J. E. and Tsien, R. Y. (1997) Chem. Biol. 4, 269-277.
Voltage Assay Background Suppression Compound (VABSC-1) is prepared in H2O (89-363 mM, range used to maintain solubility)
Human Serum (HS, Millipore #S1P1-01KL, or Sigma SLBR5469V and SLBR5470V as a 50%/50% mixture, for 25% assay final concentration)
Bath 1 Buffer: • Sodium Chloride 160 mM (9.35 g/L), Potassium Chloride, 4.5 mM (0.335 g/L), Glucose 10 mM (1.8 g/L), Magnesium Chloride (Anhydrous) 1 mM (0.095 g/L), Calcium Chloride 2 mM (0.222 g/L), HEPES 10 mM (2.38 g/L) in water. […]
`COc1c([C@H]2[C@H](C(=O)Nc3cnc(CO)c(CO)c3)O[C@@](C)(C(F)(F)F)[C@H]2C)ccc(F)c1F` [Compound 87, (2R,3S,4S,5R)-N-(5,6-bis(hydroxymethyl)pyridin-3-yl)-3-(3,4-difluoro-2-methoxyphenyl)-4,5-dimethyl-5-(trifluoromethyl)tetrahydrofuran-2-carboxamide] gave an IC50 of 100 to 1000 nM.
For `COc1c([C@H]2[C@H](C(=O)Nc3ccc(CO)nc3)O[C@@](C)(C(F)(F)F)[C@H]2C)ccc(F)c1F` [Compound 14, (2R,3S,4S,5R)-3-(3,4-difluoro-2-methoxyphenyl)-N-(6-(hydroxymethyl)pyridin-3-yl)-4,5-dimethyl-5-(trifluoromethyl)tetrahydrofuran-2-carboxamide], the IC50 was < 10 nM.
With `CCOc1c([C@H]2[C@H](C(=O)Nc3ccc([C@H](O)CO)nc3)O[C@@](C)(C(F)(F)F)[C@H]2C)ccc(F)c1F` [Compound 6, (2R,3S,4S,5R)-N-(6-((S)-1,2-dihydroxyethyl)pyridin-3-yl)-3-(2-ethoxy-3,4-difluorophenyl)-4,5-dimethyl-5-(trifluoromethyl)tetrahydrofuran-2-carboxamide] the IC50 was < 10 nM.
With `CCOc1c([C@H]2C[C@@](C)(C(F)(F)F)O[C@@H]2C(=O)Nc2ccc([C@H](O)CO)nc2)ccc(F)c1F` (single isomer, unassigned) [Compound 32, rel-(2S,3R,5S)-N-(6-((S*)-1,2-dihydroxyethyl)pyridin-3-yl)-3-(2-ethoxy-3,4-difluorophenyl)-5-methyl-5-(trifluoromethyl)tetrahydrofuran-2-carboxamide] the IC50 was ≥ 1000 nM.
With `COc1c([C@H]2[C@H](C(=O)Nc3ccc([C@H](C)O)nc3)O[C@@](C)(C(F)(F)F)[C@H]2C)ccc(F)c1F` [Compound 85, (2R,3S,4S,5R)-3-(3,4-difluoro-2-methoxyphenyl)-N-(6-((S)-1-hydroxyethyl)pyridin-3-yl)-4,5-dimethyl-5-(trifluoromethyl)tetrahydrofuran-2-carboxamide] the IC50 was 10 to 100 nM.
For `Cc1c([C@@H]2[C@@H](C(=O)Nc3ccc([C@@H](O)CO)nc3)O[C@@](C)(C(F)(F)F)[C@H]2C)ccc(F)c1F` (single isomer, unassigned) [Compound 65, rel-(2S,3R,4S,5R)-3-(3,4-difluoro-2-methylphenyl)-N-(6-((R*)-1,2-dihydroxyethyl)pyridin-3-yl)-4,5-dimethyl-5-(trifluoromethyl)tetrahydrofuran-2-carboxamide], the IC50 was ≥ 1000 nM.
With `COc1c(C2C(C(=O)Nc3ccc(C(O)CF)nc3)OC(C)(C(F)(F)F)C2C)ccc(F)c1F` (single isomer, unassigned) [Compound 17, rel-(2R*,3S*,4S*,5R*)-3-(3,4-difluoro-2-methoxyphenyl)-N-(6-(2-fluoro-l-hydroxyethyl)pyridin-3-yl)-4,5-dimethyl-5-(trifluoromethyl)tetrahydrofuran-2-carboxamide] the IC50 was 10 to 100 nM.
In the case of `COc1c([C@H]2[C@H](C(=O)Nc3ccc([C@@H](O)CO)nc3)O[C@@](C)(C(F)(F)F)[C@H]2C)cccc1C(F)(F)F` (single isomer, unassigned) [Compound 70, rel-(2R,3S,4S,5R)-N-(6-((R*)-1,2-dihydroxyethyl)pyridin-3-yl)-3-(2-methoxy-3-(trifluoromethyl)phenyl)-4,5-dimethyl-5-(trifluoromethyl)tetrahydrofuran-2-carboxamide], the IC50 is reported as < 10 nM.
In the case of `COc1c(C2C(C(=O)Nc3ccc(CO)nc3)OC(C)(C(F)(F)F)C2C)ccc(F)c1C(F)F` (single isomer, unassigned) [Compound 53], the IC50 is reported as < 10 nM.
For `C[C@H]1[C@@H](c2ccc(F)c(F)c2OCC(F)F)[C@H](C(=O)Nc2ccc([C@@H](O)CO)nc2)O[C@@]1(C)C(F)(F)F` [Compound 38, (2R,3S,4S,5R)-3-(2-(2,2-difluoroethoxy)-3,4-difluorophenyl)-N-(6-((R)-1,2-dihydroxyethyl)pyridin-3-yl)-4,5-dimethyl-5-(trifluoromethyl)tetrahydrofuran-2-carboxamide], the IC50 was < 10 nM.
`COc1c(C2C(C(=O)Nc3cnc(C(O)CO)nc3)OC(C)(C(F)(F)F)C2C)ccc(F)c1F` (single isomer, unassigned) [Compound 12] gave an IC50 of 10 to 100 nM.
For `COc1c([C@H]2[C@H](C(=O)Nc3cnc(C(O)CO)nc3)O[C@@](C)(C(F)(F)F)[C@H]2C)cccc1C(F)(F)F` (single isomer, unassigned) [Compound 71], the IC50 was 100 to 1000 nM.
In the case of `COc1c([C@@H]2[C@@H](C(=O)Nc3ccc(C(C)O)nc3)O[C@](C)(C(F)(F)F)[C@@H]2C)ccc(F)c1C(F)F` (single isomer, unassigned) [Compound 57], the IC50 is reported as ≥ 1000 nM.
For `COc1c([C@H]2[C@H](C(=O)Nc3ccc(C(C)O)nc3)O[C@@](C)(C(F)(F)F)[C@H]2C)ccc(F)c1C(F)F` (relative stereo) [Compound 56, rel-(2R,3S,4S,5R)-3-(3-(difluoromethyl)-4-fluoro-2-methoxyphenyl)-N-(6-(1-hydroxyethyl)pyridin-3-yl)-4,5-dimethyl-5-(trifluoromethyl)tetrahydrofuran-2-carboxamide], the IC50 was 10 to 100 nM.
In the case of `COc1c(C2C(C(=O)Nc3ccc(C(O)CO)nc3)OC(C)(C(F)(F)F)C2C)ccc(F)c1C` (single isomer, unassigned) [Compound 44, rel-(2S,3R,4R,5S)-N-(6-((S*)-1,2-dihydroxyethyl)138yridine-3-yl)-3-(4-fluoro-2-methoxy-3-methylphenyl)-4,5-dimethyl-5-(trifluoromethyl)tetrahydrofuran-2-carboxamide], the IC50 is reported as ≥ 1000 nM.
`COc1c([C@H]2[C@H](C(=O)Nc3cnc(CO)nc3)O[C@@](C)(C(F)(F)F)[C@H]2C)ccc(OC(F)F)c1F` [Compound 19, (2R,3S,4S,5R)-3-(4-(difluoromethoxy)-3-fluoro-2-methoxyphenyl)-N-(2-(hydroxymethyl)pyrimidin-5-yl)-4,5-dimethyl-5-(trifluoromethyl)tetrahydrofuran-2-carboxamide] showed an IC50 of 10 to 100 nM.
With `CCOc1c([C@@H]2C[C@](C)(C(F)(F)F)O[C@H]2C(=O)Nc2ccc([C@@H](O)CO)nc2)ccc(F)c1F` (single isomer, unassigned) [Compound 35, rel-(2R,3S,5R)-N-(6-((R*)-1,2-dihydroxyethyl)pyridin-3-yl)-3-(2-ethoxy-3,4-difluorophenyl)-5-methyl-5-(trifluoromethyl)tetrahydrofuran-2-carboxamide] the IC50 was 10 to 100 nM.
`Cc1c([C@@H]2[C@@H](C)[C@@](C)(C(F)(F)F)O[C@H]2C(=O)Nc2ccc([C@@H](O)CO)nc2)ccc(F)c1F` (single isomer, unassigned) [Compound 67, rel-(2R,3S,4R,5S)-3-(3,4-difluoro-2-methylphenyl)-N-(6-((R*)-1,2-dihydroxyethyl)pyridin-3-yl)-4,5-dimethyl-5-(trifluoromethyl)tetrahydrofuran-2-carboxamide] was tested, and the IC50 was ≥ 1000 nM.
For `COc1c([C@H]2C[C@@](C)(C(F)(F)F)O[C@@H]2C(=O)Nc2ccc([C@H](O)CO)nc2)ccc(F)c1F` (single isomer, unassigned) [Compound 27, rel-(2S,3R,5S)-3-(3,4-difluoro-2-methoxyphenyl)-N-(6-((S*)-1,2-dihydroxyethyl)pyridin-3-yl)-5-methyl-5-(trifluoromethyl)tetrahydrofuran-2-carboxamide], the IC50 was ≥ 1000 nM.

Reference: US11827627B2, “N-(hydroxyalkyl (hetero)aryl) tetrahydrofuran carboxamides as modulators of sodium channels” (VERTEX PHARMACEUTICALS INCORPORATED, priority 2021, dated 2023)
